US5843916A, “Cyclic amp analogues, individually and in pairs, to inhibit neoplastic cell growth” (priority 1994, dated 1998)
Read-outs that look alike come from different tables or passages of the source.

Assays:
[1] = tested on: four leukemic cell lines (HL-60, K-562, myc-K562, Molt-4); assay: Growth inhibition of leukemic cell lines; format: cell-based, human
[2] = tested on: breast and colon cancer lines (MCF-7, T-47D, ZR-75-1, MCF-7ras, MDA-MB-231, BT-20, HBL-100, LS-174T, WiDr, HT-29); assay: Growth inhibition of breast and colon cancer lines (FIG. 1); format: cell-based, human; details: 0.5 mM, alone
[3] = tested on: cultured human fibroblasts; details: cited from earlier work
[4] = tested on: Molt-4; assay: Growth inhibition of leukemic cells (Table 12); format: cell-based, human; details: Homo sapiens, MOLT-4; read-out: Inhibition of Growth IC50, Molt-4
[5] = tested on: myc-K562; assay: Growth inhibition of leukemic cells (Table 12); format: cell-based; details: Homo sapiens
[6] = tested on: HL-60; assay: Growth inhibition of leukemic cells (Table 12); format: cell-based; details: Homo sapiens
[7] = tested on: breast (MCF-7) and colon (LS-174T) cancer cell lines; assay: Growth inhibition of breast and colon cancer cells (Table 1); format: cell-based, human; details: Homo sapiens
Experimental: The compounds of the present invention were added using 100X concentrated stock solutions. At desired times, cell counts in duplicate were performed on a Coulter counter after harvesting the cells with gentle trypsinization. […] Cell counts were performed on each of three or more separate experiments, and the average values are expressed as percent growth inhibition as compared with untreated control cells. | ^a The values of percentage growth inhibition were determined from th | doseresponse curve experiments. Each value represents an average value an | range (in parentheses) obtained from three or more separate experiments. | The cell counts in duplicate were performed at day 3 and day 4 after two | treatments (day 0 and day 2) with analogs (seeding on day -1).

[8] = tested on: MCF-7ras breast cancer cell line; assay: Synergistic growth inhibition by analogue combinations (Table 2); format: cell-based, human; details: footnote of Table 2
Experimental: All breast cancer cell lines were grown in IMEM supplemented with 10% fetal bovine serum, HEPES 20 mM, penicillin-streptomycin, and extra glutamine. Colon carcinoma cell lines were grown in EMEM supplemented with 10% FBS, EMEM, NEAA, HEPES 20 mM, extra glutamine, and penicillin-streptomycin. The cells were grown at 37° C. in humidified incubators in an atmosphere of 5% CO2.
For cell growth experiments, 2-3×10^5 cells/60 mm dish were seeded, and 24 hours later (Day 0), the medium was removed, and fresh medium and the additives were added then and every 48 hours thereafter. The compounds of the present invention were added using 100X concentrated stock solutions. At desired times, cell counts in duplicate were performed on a Coulter counter after harvesting the cells with gentle trypsinization.
Synergism quotient was defined as the net growth inhibitory effect of the analogue combination divided by the sum of the net analogue effects on growth inhibition. A quotient of >1 indicates a synergistic effect, while a quotient of <1 indicates an antagonistic effect.
Synergism of growth inhibition was determined by
treatment of cells with C-6 analogues and C-8 analogues alone
and in combination at Day 0 and Day 2 and counting the cell
^a Data are expressed as percentage growth inhibition in reference to
the growth of untreated control cells and represent average values and
ranges (in parentheses) of duplicate cell counts on three or more separat
experiments. The values for percentage growth inhibition of each analogue
^b The synergism quotient was defined as previously described.

[9] = tested on: K-562; assay: Growth inhibition of leukemic cells (Table 12); format: cell-based; details: Homo sapiens, K562
[10] = tested on: breast and colon cancer cells; assay: Effect on cell morphology (FIG. 2); format: cell-based, human; details: 100 μM; three to four days
Source text: The photographs were taken on Day 4, ×160.
Furthermore, the synergistic growth inhibitory effect of C-6 and C-8 analogue combinations was also reflected in the change in the cell morphology.

[11] = molecular target: T1, RII, regulatory subunit of cAMP-dependent protein kinase type II (Bos taurus, UniProt P00515); assay: Binding affinity for RII (Table 14)
T1 construct: from tissue
T1 sequence (P00515 whole entry): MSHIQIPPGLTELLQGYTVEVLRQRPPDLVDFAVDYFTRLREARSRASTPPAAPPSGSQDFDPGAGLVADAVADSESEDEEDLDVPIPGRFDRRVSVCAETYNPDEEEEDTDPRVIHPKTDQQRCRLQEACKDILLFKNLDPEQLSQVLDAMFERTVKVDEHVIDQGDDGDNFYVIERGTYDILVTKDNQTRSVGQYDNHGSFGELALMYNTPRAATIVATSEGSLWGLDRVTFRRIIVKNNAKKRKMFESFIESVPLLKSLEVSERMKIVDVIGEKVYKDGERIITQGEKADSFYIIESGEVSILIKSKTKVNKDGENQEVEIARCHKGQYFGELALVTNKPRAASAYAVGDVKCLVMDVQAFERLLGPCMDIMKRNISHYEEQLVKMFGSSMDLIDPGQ
Experimental: (§1) RI and RII are the regulatory subunits of cAMP-dependent protein
(§2) kinase type I and type II, respectively. Site A (Site 2) and Site B
(§3) (RI and RII): the affinities of analogues for Site A and Site B were
(§4) determined by the measurement of kinetic constants (inhibition constant,
(§5) Ki), and the values are expressed as the relative affinity Ki
(§6) (analogue), i.e., the ratio between the apparent inhibition constant for
(§7) cAMP and the analogue, as described in Ogreid et al., Eur. J. Biochem.

[12] = molecular target: T2, Protein kinase type I (cAKI) (Oryctolagus cuniculus, UniProt G1TDN4); assay: Protein kinase activation (Table 15); format: biochemical, rabbit (skeletal muscle)
T2 construct: prepared from rabbit skeletal muscle and bovine heart; from tissue; host or cells: rabbit skeletal muscle
T2 sequence (G1TDN4 1-381): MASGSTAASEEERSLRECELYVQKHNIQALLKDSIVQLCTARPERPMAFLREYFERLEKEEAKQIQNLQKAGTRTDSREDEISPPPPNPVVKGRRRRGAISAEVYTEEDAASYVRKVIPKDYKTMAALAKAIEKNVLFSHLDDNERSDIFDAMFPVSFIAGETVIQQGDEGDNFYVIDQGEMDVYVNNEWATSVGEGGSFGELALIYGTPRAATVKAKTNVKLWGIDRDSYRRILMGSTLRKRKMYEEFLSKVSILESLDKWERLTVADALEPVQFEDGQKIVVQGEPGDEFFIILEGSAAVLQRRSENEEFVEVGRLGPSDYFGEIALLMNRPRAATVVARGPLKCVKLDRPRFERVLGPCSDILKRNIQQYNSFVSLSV
Experimental: (§8) ATP to Kemptide as described by Ogreid et al., Eur. J. Biochem. 150: 219-227 (1985).
(§9) Protein kinases types I (cAKI) and II (cAKII) were
(§10) prepared from rabbit skeletal muscle and bovine heart,
(§11) respectively, as described in D.o slashed.skeland et al. (J. Biol.
(§12) of the protein kinase in Ogreid et al. (Eur. J. Biochem.

[13] = molecular target: T3, RI, regulatory subunit of cAMP-dependent protein kinase type I (Oryctolagus cuniculus, UniProt G1TDN4); assay: Binding affinity for RI (Table 14)
T3 construct: from tissue
T3 sequence (G1TDN4 1-381): as above
Experimental: as §1, §2, §3, §4, §5, §6, §7

[14] = tested on: HL-60 leukemia cells; assay: Surface antigen expression of HL-60 cells (Example 5); format: cell-based, human; details: 100 μM
Experimental: (§13) Briefly, cells were fixed in 70% ethanol and stored at 4° C. before analysis. Nuclear DNA was stained with propidium iodide, 50 μg/ml in phosphate-buffered saline (pH 7.4), for 30 minutes at room temperature. RNase was added to avoid double-helix RNA staining. The DNA content of cells was analyzed by a FACScan flow cytometer coupled with a Hewlett-Packard computer. Cell cycle data analysis was performed by a Cell-FIT program according to the method of Dean (Cell Tissue Kinet. 13: 299-308 (1980)) (Becton Dickinson Immunocytometry Systems). Pulse area versus pulse width gating was performed to exclude doublets from the G2 -M region. For each sample, 20,000 events were stored in list mode. Cell surface antigen analysis was performed by flow cytometry with FACScan using a panel of monoclonal antibodies reactive with either monocytic or myeloid cells.
The effect of Rp- and Sp-8-Cl-cAMPS on the expression of differentiation markers in HL-60 cells was examined to determine if the growth-arrested HL-60 cells are more differentiated than untreated cells. […] For each sample, 2×10^4 cells were analyzed. Cell surface antigen analysis was performed by flow cytometry with FACScan. Cell gating was performed using forward and side scatter.

[15] = tested on: HL-60 Cells; assay: Cell cycle kinetics of HL-60 cells (Table 17); format: cell-based, human; details: for % G2 M / % G0-G1 / % S: 96 hours; for % G2 M: control 8.3; for % G0-G1: control 45.7; for % S: control 46
Experimental: as §13

[16] = tested on: HL-60 human leukemia cells; assay: Growth inhibition of HL-60 leukemia cells (Example 3, Table 16); format: cell-based; details: for IC50: Homo sapiens
Experimental: HL-60 leukemic cells were obtained from the American Type Culture Collection (Rockville, Md.) and were grown in suspension culture in RPMI 1640 supplemented with 10% heat-inactivated fetal bovine serum, streptomycin (500 μg/ml), penicillin (50 units/ml), and glutamine (1 mM) (Gibco, Grand Island, N.Y.).
Cell counts were performed at desired times on a Coulter Counter.
The IC50 values were determined from the dose-
represent an average value obtained for each analogue
from two or more separate experiments carried out from 3
days or 6 days. Initial cell number, 1 × 10^5 /dish.
Typical numbers of untreated control cells at day 3 and
viability in treated and control cells.

[17] = molecular target: T4, Protein kinase type II (cAKII) (Bos taurus, UniProt P00515); assay: Protein kinase activation (Table 15); format: biochemical, bovine (heart)
T4 construct: prepared from rabbit skeletal muscle and bovine heart; from tissue; host or cells: bovine heart
T4 sequence (P00515 2-401 limits assumed): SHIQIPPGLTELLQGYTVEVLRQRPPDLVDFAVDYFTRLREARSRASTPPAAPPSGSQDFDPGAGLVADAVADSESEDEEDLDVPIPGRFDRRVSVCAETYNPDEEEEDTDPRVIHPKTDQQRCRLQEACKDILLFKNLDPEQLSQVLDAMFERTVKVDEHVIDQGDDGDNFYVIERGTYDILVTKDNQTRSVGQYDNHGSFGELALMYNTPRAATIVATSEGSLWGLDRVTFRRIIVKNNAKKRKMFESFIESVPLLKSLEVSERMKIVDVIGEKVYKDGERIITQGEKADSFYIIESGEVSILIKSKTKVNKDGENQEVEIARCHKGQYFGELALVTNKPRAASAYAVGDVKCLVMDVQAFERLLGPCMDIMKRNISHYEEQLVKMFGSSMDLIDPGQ
Experimental: as §8, §9, §10, §11, §12

[18] = tested on: LS-174T human colon carcinoma cells; assay: Growth inhibition of LS-174T cells (Example 4, Table 18); format: cell-based
Experimental: LS-174T human colon carcinoma cells were obtained from the National Cancer Institute, Division of Cancer Treatment, Bethesda, Md., and were grown in Eagle's minimum essential medium supplemented with 10% heat-inactivated fetal bovine serum, Eagle's minimum essential medium nonessential amino acids, 20 mM 4-(2-hydroxyethyl)-1-piperazineethanesulfonic acid, 2mM glutamine, and penicillin-streptomycin (Gibco). The medium was changed every 48 hours.
LS-174T cells were seeded at a density of 2×10^5 / 60 mm dish. […] At desired times, cell counts were performed in duplicate on a Coulter Counter after harvesting cells with gentle trypsinization.
The percentage growth inhibition values shown at 10
and 50 μM analogue concentrations were determined from
the dose-response curve experiments like those shown in
FIG. 1 and represent an average value obtained for each
analogue from two or more separate experiments. Sp-6-SET-

[19] = 72 h, 50 μM, day 3, average (range), read-out: % Growth Inhibition, Day 3
[20] = 96 h, 50 μM, day 4, average (range), read-out: % Growth Inhibition, Day 4
[21] = 50 micromolar, read-out: growth inhibition
[22] = half-maximum activation, U. M.: unmeasurable

CC(C)Cn1c(=O)n(C)c(=O)c2[nH]cnc21 [1-methyl-3-isobutylxanthine]
growth inhibitory effect ([1]; 0.5 mM, alone): little or no growth inhibitory effect | growth inhibitory effect [2]: little or no growth inhibitory effect | DNA synthesis ([3]; added during first eight hours after serum addition): not delayed | DNA synthesis ([3]; added more than eight hours after serum addition): inhibitory

CNc1nc2c(N)ncnc2n1[C@@H]1O[C@@H]2COP(=O)(O)O[C@H]2[C@H]1O [8-methylamino-cAMP]
IC50 [4]: 100 µM | IC50 [5]: 100 µM | IC50 [6]: 100 µM | times less potent than 8-Cl-cAMP ([1]; leukemic cell lines): 5-20 times | inhibition at 50 µM [7, 19]: 14% | inhibition at 50 µM [7, 20]: 15% | inhibition at 50 µM [7, 21]: ≤ 20% | percentage growth inhibition of each analogue when added alone [8]: 10% | IC50 [9]: 100 µM

CSc1nc2c(N)ncnc2n1[C@@H]1O[C@@H]2COP(=O)(O)O[C@H]2[C@H]1O [8-methylthio-cAMP]
IC50 [4]: 100 µM | IC50 [5]: 100 µM | IC50 [6]: 100 µM | times less potent than 8-Cl-cAMP ([1]; leukemic cell lines): 5-20 times | inhibition at 50 µM [7, 19]: 46% | inhibition at 50 µM [7, 20]: 42% | inhibition at 50 µM [7, 21]: 40 to 75% | cell morphology [10]: induced the morphological change | IC50 [9]: 100 µM

O=C(Nc1ncnc2c1ncn2[C@@H]1O[C@@H]2COP(=O)(O)O[C@H]2[C@H]1O)c1ccccc1 [N^6 -benzoyl-cAMP]
IC50 [4]: 40 µM | IC50 [5]: 50 µM | IC50 [6]: 50 µM | IC50 ([1]; Homo sapiens, leukemic cell lines, range): 40 to 50 µM | inhibition at 50 µM [7, 19]: 30% | inhibition at 50 µM [7, 20]: 28% | percentage growth inhibition of each analogue when added alone [8]: 10% | IC50 [9]: 45 µM

Nc1ncnc2c1nc(Cl)n2[C@@H]1O[C@@H]2CO[P@](O)(=S)O[C@H]2[C@H]1O [Sp-8-Cl-cAMPS, Sp-(axial exocyclic sulfursubstitution) 8-chloro-adenosine 3': 5'-monophosphorothioate]
relative affinity Ki (cAMP)/Ki (analogue), RII Site A ([11]; Site A (Site 2)): 0.0023 | relative affinity Ki (cAMP)/Ki (analogue), RII Site B ([11]; Site B (Site 1)): 2.4 | decrease in affinity for Site A of RII vs corresponding cyclophosphate ([11]; vs cyclophosphate): 22 fold | decrease in affinity for Site B of RII vs corresponding cyclophosphate ([11]; vs cyclophosphate): 1.9 fold | Activation Constant (Ka), cAKI [12, 22]: 2.5 × 10^-7 | increase in the Ka for protein kinase type I vs 8-Cl-cAMP ([12]; vs 8-Cl-cAMP): 11 fold | relative affinity Ki (cAMP)/Ki (analogue), RI Site A ([13]; Site A (Site 2)): 0.18 | relative affinity Ki (cAMP)/Ki (analogue), RI Site B ([13]; Site B (Site 1)): 0.037 | decrease in affinity for Site A of RI vs corresponding cyclophosphate ([13]; vs cyclophosphate): 15 fold | decrease in affinity for Site B of RI vs corresponding cyclophosphate ([13]; vs cyclophosphate): 54 fold | surface antigen expression [14]: no appreciable effect on the surface antigen expression | % G2 M ([15]; 10 μM): 8.9% | % G0-G1 ([15]; 10 μM): 46.8% | % S ([15]; 10 μM): 44.3% | % G2 M ([15]; 50 μM): 8.6% | % G0-G1 ([15]; 50 μM): 46% | % S ([15]; 50 μM): 45.4% | % G2 M ([15]; 100 μM): 9.0% | % G0-G1 ([15]; 100 μM): 56% | % S ([15]; 100 μM): 35% | cell cycle phase distribution ([15]; HL-60, 96 hours in Table 17): not appreciably different | IC50 ([16]; HL-60, 72 h, read-out: Growth inhibition (IC50), Day 3): 100 µM | IC50 ([16]; HL-60, 144 h, read-out: Growth inhibition (IC50), Day 6): 8 µM | fold less potent than 8-Cl-cAMP ([16]; growth inhibition HL-60, day 6): 20 fold | Activation Constant (Ka), cAKII [17, 22]: 2.5 × 10^-7 | increase in the Ka for protein kinase type II vs 8-Cl-cAMP ([17]; vs 8-Cl-cAMP): 2.5 fold | inhibition at 10 µM ([18]; Homo sapiens, LS174T): 20% | inhibition at 50 µM ([18]; Homo sapiens, LS174T): 40% | growth inhibitory potency ([18]; LS-174T): moderate potency
